# Laboratory results reported in patent publication US12528777B2, “Quinazolinones derivatives for treatment of non-alcoholic fatty liver disease, preparation and use thereof” (Council of Scientific and Industrial Research, priority 2020, dated 2026).
# Test system: ATGL
# Assay: Western blot of ATGL level in HepG2 cells
# Assay type: cell-based
# Set-up: key to Increase in ATGL level: + = slight or in insignificant; ++ = Moderate; +++ and ++++ = active; +++ and ++++ = active; +++++ = very active
# Details: HepG2 cells, western blot, score
# Procedure: To select the compounds capable of inhibiting the ubiquitination of ATGL by COP1 by targeting the VP motif, confocal microscopy was performed with the provided molecules. If the compound was effective in inhibiting the interaction, there would be a reduction in the number of fat droplets in the cells after treatment. […] With this rationale in mind, HepG2 cells were induced to accumulate lipid droplets after treatment with 250 µM of oleate and 10 μM of the specific compounds were added. The potential of the compounds to bring about a reduction in the number of fat droplets was then checked by comparison with oleate induced cells by counting number of droplets of approximately 20 cells from each treatment and calculating the average number of lipid droplets of each cell. The selected compounds were then subjected to dose dependent treatments and the ones which could maintain its potency to reduce fat droplets at lower doses were then selected for western blot analysis. The compound which could reduce the number of fat droplets in the cells are expected to raise the levels of ATGL since they are likely to deter COP1 from ubiquitinating ATGL. This increase will be visible only in the protein level and gene expression is likely to remain unchanged since ubiquitination is a […] modification. Thus, western blot was performed to check ATGL levels in the cells with the selected molecules.
# HepG2 cells were treated with the compounds 9, 10, 11, 17, 18, 23, 24, 115, 123, 127, 139,107, 171, 179, 73, 187, 211, 215, 219, 223, 232, 238, 241, 244, 258, 299, 308, and 333a, (10 μM for initial screening and 50 nM, 100 nM, 200 nM, 500 nM, 1 μM and 5 μM for dose dependent assays) for 24 hours. After removing media from the cells, the wells were washed with 1×PBS twice to remove any remnant media. Cells were then lysed in lysis buffer containing 50 mM Tris-HCl (pH 7.4), 100 mM NaCl, 1 mM EDTA, 1 mM EGTA, 1% Triton X-100 and protease inhibitor cocktail (Millipore, Billierica, MA, USA). Following centrifugation at 20,000 g for 20 minutes, the protein solution was extracted from the cells. Protein was estimated using Bradford assay. Bradford's reagent (BioRad) was diluted in 1:4 ratio in double distilled water. 2 μl of protein sample was added to 100 μl of the reagent and absorbance was measured at 595 nm. […] of protein was diluted in lysis buffer. 1× loading buffer diluted from 5× stock containing 250 mM Tris-HCl (pH 6.8), 10% SDS, 50% glycerol, 0.1% bromophenol Blue and 10% β-mercaptoethanol was added. The protein samples were then heated at 95° C. for 10 minutes, cooled and centrifuged at 12,000 g for 2 minutes prior to loading.
# For western blotting, the proteins were resolved in 10% SDS PAGE (discontinuous buffer system). 1× running buffer containing SDS, Tris Base and Glycine was used to run the gel at 80V for approximately 2 hours. Transfer was done using PVDF membrane (Millipore) having pore size of 0.45 μm. 1× transfer buffer containing Tris-Base, Glycine and 20% methanol was used for wet transfer. Transfer was done at 90V for 3 hours. Following transfer, the PVDF membrane containing the proteins were washed in 1×PBST comprising of 1×PBS and 1% Tween 20 (Sigma Aldrich). The membrane was then incubated for 1 hour at room temperature in 5% skim milk powder to block the non-specific sites. Following multiple washes with 1×PBST to wash away any remaining blocking buffer, the required primary antibody (COP1 [Bethyl Laboraties], ATGL [Cell Signalling Technology] or Actin[Cell Signalling Technology]) prepared with 1×PBST, 1% Bovine Serum Albumin and 0.04% Sodium Azide was added to the membrane and incubated overnight at 4° C. The next day, the membrane was again washed multiple times with 1×PBST to remove any unbound primary antibody. The membrane was then incubated with goat anti-rabbit secondary antibody (Genei) for 1 hour at room temperature and washed again for multiple times with 1×PBST. […]
row,SMILES,Increase in ATGL level
1,"COCCn1cnc2ccc(NC(=O)Nc3ccc(C(F)(F)F)cc3)cc2c1=O [Compound 38, 1-(3-(2-methoxyethyl)-4-oxo-3,4-dihydroquinazolin-6-yl)-3-(4-(trifluoromethyl)phenyl)urea]",++
2,"CCC(COC)n1c(C)nc2ccc(NC(=O)Nc3cccc(C(C)=O)c3)cc2c1=O (stereo not drawn) [Compound 281, 1-(3-acetylphenyl)-3-(3-(1-methoxybutan-2-yl)-2-methyl-4-oxo-3,4-dihydroquinazolin-6-yl)ureae]",++
3,"COCCn1cnc2ccc(NC(=O)Nc3cccc(C(C)=O)c3)c(C3CCNCC3)c2c1=O [Compound 62, 1-(3-acetylphenyl)-3-(3-(2-methoxyethyl)-4-oxo-5-(piperidin-4-yl)-3,4-dihydroquinazolin-6-yl)urea]",+++
4,"CC(=O)c1cccc(NC(=O)Nc2ccc3ncn(CCOC(C)C)c(=O)c3c2)c1 [Compound 183, 1-(3-acetylphenyl)-3-(3-(2-isopropoxyethyl)-4-oxo-3,4-dihydroquinazolin-6-yl)urea]",+++
5,"COCCn1cnc2ccc(NC(=O)Nc3cccc(C(C)=O)c3)c(C3CCN(C(=O)OC(C)(C)C)CC3)c2c1=O [Compound 61, tert-butyl 4-(6-(3-(3-acetylphenyl)ureido)-3-(2-methoxyethyl)-4-oxo-3,4-dihydroquinazolin-5-yl)piperidine-1-carboxylate]",+
6,"COCCn1c(C)nc2ccc(NC(=O)Nc3cccc(C(C)=O)c3)c(Br)c2c1=O [Compound 345, 1-(3-acetylphenyl)-3-(5-bromo-3-(2-methoxyethyl)-2-methyl-4-oxo-3,4-dihydroquinazolin-6-yl)urea]",+
7,"COCCn1cnc2ccc(NC(=O)Nc3cccc(C(C)=O)c3)c(-c3ccc(OC)cc3)c2c1=O [Compound 64, 1-(3-acetylphenyl)-3-(3-(2-methoxyethyl)-5-(4-methoxyphenyl)-4-oxo-3,4-dihydroquinazolin-6-yl)urea]",+
8,"COCCn1cnc2ccc(NC(=O)Nc3ccccc3C(F)(F)F)cc2c1=O [Compound 39, 1-(3-(2-methoxyethyl)-4-oxo-3,4-dihydroquinazolin-6-yl)-3-(2-(trifluoromethyl)phenyl)urea]",++
9,"COCCn1cnc2ccc(NC(=O)Nc3cccc(C(C)=O)c3)c(-c3ccc(F)cc3)c2c1=O [Compound 47, 1-(3-acetylphenyl)-3-(5-(4-fluorophenyl)-3-(2-methoxyethyl)-4-oxo-3,4-dihydroquinazolin-6-yl)urea]",+++
10,"COCCn1c(CN2CCCC2)nc2ccc(NC(=O)Nc3cccc(C(C)=O)c3)cc2c1=O [Compound 232, 1-(3-acetylphenyl)-3-(3-(2-methoxyethyl)-4-oxo-2-(pyrrolidin-1-ylmethyl)-3,4-dihydroquinazolin-6-yl)urea]",+++
11,"COCCn1cnc2ccc(NC(=O)Nc3cccc(CNC(C)=O)c3)cc2c1=O [Compound 25, N-(3-(3-(3-(2-methoxyethyl)-4-oxo-3,4-dihydroquinazolin-6-yl)ureido)benzyl)acetamide]",+
12,"COCCn1cnc2ccc(NC(=O)Nc3cccc(C(C)=O)c3)c(C3=CCNCC3)c2c1=O [Compound 60, 1-(3-acetylphenyl)-3-(3-(2-methoxyethyl)-4-oxo-5-(1,2,3,6-tetrahydropyridin-4-yl)-3,4-dihydroquinazolin-6-yl)urea]",+
13,"CC(=O)c1cccc(NC(=O)Nc2ccc3ncn(N4CCOCC4)c(=O)c3c2)c1 [Compound 340, 1-(3-acetylphenyl)-3-(3-morpholino-4-oxo-3,4-dihydroquinazolin-6-yl)urea]",+
14,"CC(=O)c1cccc(NC(=O)Nc2ccc3ncn(C4CCCCC4)c(=O)c3c2)c1 [Compound 187, 1-(3-acetylphenyl)-3-(3-cyclohexyl-4-oxo-3,4-dihydroquinazolin-6-yl)urea]",+++
15,"COCCn1cnc2ccc(NC(=O)Nc3cccc(C(C)=O)c3)c(C3=CCN(C(=O)OC(C)(C)C)CC3)c2c1=O [Compound 59, tert-butyl 4-(6-(3-(3-acetylphenyl)ureido)-3-(2-methoxyethyl)-4-oxo-3,4-dihydroquinazolin-5-yl)-5,6-dihydropyridine-1 (2H)-carboxylate]",+
16,"COc1ccccc1-n1cnc2ccc(NC(=O)Nc3cccc(C(C)=O)c3)cc2c1=O [Compound 131, 1-(3-acetylphenyl)-3-(3-(2-methoxyphenyl)-4-oxo-3,4-dihydroquinazolin-6-yl)urea]",+
17,"CC(=O)c1cccc(NC(=O)Nc2ccc3ncn(CC(=O)Nc4ccccc4Br)c(=O)c3c2)c1 [Compound 259, 2-(6-(3-(3-acetylphenyl)ureido)-4-oxoquinazolin-3 (4H)-yl)-N-(2-bromophenyl)acetamide]",+++
18,"COCCn1cnc2ccc(NC(=O)Nc3cccc(C(C)=O)c3)c(-c3ccc(C(F)(F)F)cc3)c2c1=O [Compound 66, 1-(3-acetylphenyl)-3-(3-(2-methoxyethyl)-4-oxo-5-(4-(trifluoromethyl)phenyl)-3,4-dihydroquinazolin-6-yl)urea]",++
19,"COCC(C)n1c(C)nc2ccc(NC(=O)Nc3cccc(C(C)=O)c3)cc2c1=O (stereo not drawn) [Compound 285, 1-(3-acetylphenyl)-3-(3-(1-methoxypropan-2-yl)-2-methyl-4-oxo-3,4-dihydroquinazolin-6-yl)urea]",+

# Same assay, conditions: fold increase of ATGL by densitometry, as % of 1.6 fold maximum with siCOP1; doses 10-5000 nM; read-out: EC50 (in-vitro)
row,EC50 [nM],SMILES
1,290,"COCCn1c(C2CCN(C(=O)OC(C)(C)C)CC2)nc2ccc(NC(=O)Nc3cccc(C(C)=O)c3)cc2c1=O [Compound 299, tert-butyl 4-(6-(3-(3-acetylphenyl)ureido)-3-(2-methoxyethyl)-4-oxo-3,4-dihydroquinazolin-2-yl)piperidine-1-carboxylate]"
2,10.8,"COCCn1c(C2CCCC2)nc2ccc(NC(=O)Nc3cccc(C(C)=O)c3)cc2c1=O [Compound 127, 1-(3-acetylphenyl)-3-(2-cyclopentyl-3-(2-methoxyethyl)-4-oxo-3,4-dihydroquinazolin-6-yl)urea]"
3,434,"COCCn1c(CN2CCCC2)nc2ccc(NC(=O)Nc3cccc(C(C)=O)c3)cc2c1=O [Compound 232, 1-(3-acetylphenyl)-3-(3-(2-methoxyethyl)-4-oxo-2-(pyrrolidin-1-ylmethyl)-3,4-dihydroquinazolin-6-yl)urea]"
4,70.3,"COCCn1c(-c2cnccn2)nc2ccc(NC(=O)Nc3cccc(C(C)=O)c3)cc2c1=O [Compound 223, 1-(3-acetylphenyl)-3-(3-(2-methoxyethyl)-4-oxo-2-(pyrazin-2-yl)-3,4-dihydroquinazolin-6-yl)urea]"

# Same assay, conditions: western blot, 24 hours, 10 μM screening or 50 nM-5 μM dose dependent
row,SMILES,ATGL level in HepG2 cells
1,"COCCn1c(C2CCN(C(=O)OC(C)(C)C)CC2)nc2ccc(NC(=O)Nc3cccc(C(C)=O)c3)cc2c1=O [Compound 299, tert-butyl 4-(6-(3-(3-acetylphenyl)ureido)-3-(2-methoxyethyl)-4-oxo-3,4-dihydroquinazolin-2-yl)piperidine-1-carboxylate]",increased ATGL level
2,"COCCn1c(C2CCCC2)nc2ccc(NC(=O)Nc3cccc(C(C)=O)c3)cc2c1=O [Compound 127, 1-(3-acetylphenyl)-3-(2-cyclopentyl-3-(2-methoxyethyl)-4-oxo-3,4-dihydroquinazolin-6-yl)urea]",increased ATGL level
3,"COCCn1c(C(=O)N2CCN(C)CC2)nc2ccc(NC(=O)Nc3cccc(C(C)=O)c3)cc2c1=O [Compound 333a, 1-(3-acetylphenyl)-3-(3-(2-methoxyethyl)-2-(4-methylpiperazine-1-carbonyl)-4-oxo-3,4-dihydroquinazolin-6-yl)urea]",increased ATGL level
4,"COCCn1c(CN2CCCC2)nc2ccc(NC(=O)Nc3cccc(C(C)=O)c3)cc2c1=O [Compound 232, 1-(3-acetylphenyl)-3-(3-(2-methoxyethyl)-4-oxo-2-(pyrrolidin-1-ylmethyl)-3,4-dihydroquinazolin-6-yl)urea]",increased ATGL level
5,"COCCn1cnc2ccc(NC(=O)N(O)c3cccc(C(C)=O)c3)cc2c1=O [Compound 308, 1-(3-acetylphenyl)-1-hydroxy-3-(3-(2-methoxyethyl)-4-oxo-3,4-dihydroquinazolin-6-yl)urea]",increased ATGL level
6,"COCCn1c(CN2CCN(C)CC2)nc2ccc(NC(=O)Nc3cccc(C(C)=O)c3)cc2c1=O [Compound 244, 1-(3-acetylphenyl)-3-(3-(2-methoxyethyl)-2-((4-methylpiperazin-1-yl)methyl)-4-oxo-3,4-dihydroquinazolin-6-yl)urea]",increased ATGL level
7,"COCCn1c(-c2cnccn2)nc2ccc(NC(=O)Nc3cccc(C(C)=O)c3)cc2c1=O [Compound 223, 1-(3-acetylphenyl)-3-(3-(2-methoxyethyl)-4-oxo-2-(pyrazin-2-yl)-3,4-dihydroquinazolin-6-yl)urea]",increased ATGL level
